The results in this text go back to US20160120863A1, “SLC2A TRANSPORTER INHIBITORS” (IOMET PHARMA LTD., priority 2013, published 2016).

Where two headings read alike, the source gives them in different places. Where only a bound is given, the exact number is not on record here.

Type in all cases: cell-based
The target of one assay is T1, human GLUT1 (Homo sapiens, UniProt P11166).
T1 construct: expressed in transfected cells
T1 sequence (P11166 1-492): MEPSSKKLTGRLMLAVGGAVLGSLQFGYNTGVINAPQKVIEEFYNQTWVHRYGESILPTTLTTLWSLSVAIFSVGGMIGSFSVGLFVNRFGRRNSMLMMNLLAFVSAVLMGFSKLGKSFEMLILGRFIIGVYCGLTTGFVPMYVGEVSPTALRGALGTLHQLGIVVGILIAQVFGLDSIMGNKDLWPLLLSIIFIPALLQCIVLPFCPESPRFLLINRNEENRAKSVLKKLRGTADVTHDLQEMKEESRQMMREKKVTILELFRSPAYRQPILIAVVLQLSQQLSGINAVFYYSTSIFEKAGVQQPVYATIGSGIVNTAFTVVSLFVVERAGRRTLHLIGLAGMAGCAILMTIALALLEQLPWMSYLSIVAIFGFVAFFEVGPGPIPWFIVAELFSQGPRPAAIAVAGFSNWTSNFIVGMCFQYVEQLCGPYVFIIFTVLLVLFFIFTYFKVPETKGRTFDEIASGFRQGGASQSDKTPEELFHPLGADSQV
In words: [3H]-deoxy-D-glucose uptake assay, GLUT1. As to conditions: [3H]-deoxy-D-glucose uptake in HEK293 cells stably expressing human GLUT1. A digest of the protocol:
(§1)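 HEK293 cells stably overexpressing human GLUT1 or GLUT2, seeded at 60,000 per well, treated with compounds in glucose-free uptake buffer for 30 min at 37 °C. [3H]-deoxy-D-glucose uptake quantified by scintillation counting after ice-cold PBS washes; IC50 determined.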

The test system of the next assay is A549 cells. In words: Lactate production assay (lactate secretion, 5 or 17 mM glucose). As to conditions: Homo sapiens, 4 hours incubation. The procedure: A549 cells were grown in DMEM/F12K+L-Glutamine supplemented with 10% foetal bovine serum. Cells were re-suspended in assay media (DMEM without phenol red, pyruvate and glucose, 10% foetal bovine serum, 2 mM L-Glutamine and 5 or 17 mM glucose) and seeded at 40×10^3 cells per well into 96-well plates and incubated overnight. Increasing concentrations of the test compound (compound 155) and vehicle control were added and incubated for 4 hours at 37° C., 5% CO2. Lactate reagent was added (Trinity Biotech), the plates were incubated in the dark for 7 min at room temperature before capturing the absorbance at 540 nm using a plate reader.

Assay [1] concerns A549 adenocarcinoma NucLight Red cells. In words: Cell growth (proliferation) assay, NucLight Red, IncuCyte. Conditions: Homo sapiens, AUC analysis of first 24 hours of compound exposure. The procedure:
(§2) A549 adenocarcinoma NucLight Red cells were grown in Ham's F12K medium supplemented with 10% foetal bovine serum, 2 mM Glutamax, 1% pen/strep and 0.5 μg ml-l puromycin. Cells were seeded at 1×10^4 cells per well into 384-well microtitre-plates with media containing 5 mM (FIGS. 3A and 3C) or 17 mM glucose (FIGS. 3B and 3D). The cells were left to adhere before the addition of increasing concentration of test compound (compound 155) and vehicle control. The cells stably expressed Essen CellPlayer NucLight Red Fluorescent Protein to allow measurement of cell proliferation (FIGS. 3 A and B). The culture medium contained Essen CellPlayer 96-well Kinetic Caspase 3/7-reagent and Biotium DEVD-NucView 488 to allow measurement of apoptosis induction (FIGS. 3 C and D). Cells were monitored continuously for 48 hours of compound exposure using Essen IncuCyte.
(§3) pIC50 values for the proliferation and apoptosis assays were derived from area under the curve (AUC) analysis of data from the first 24 hours of compound exposure.

Assay [2] has the same test system. The assay can be described thus: Apoptosis induction assay, Caspase 3/7 reagent, IncuCyte. Conditions: Homo sapiens, Caspase 3/7, AUC analysis of first 24 hours of compound exposure. The procedure:
as §2, §3

Assay [3] concerns [3H]-deoxy-D-glucose uptake. In words: Glucose uptake assay with compound 155 (inhibition of [3H]-deoxy-D-glucose uptake, FIG. 2A). As to conditions: read-out: Glucose Uptake pIC50 (converted).
For a further assay, the target named is T2, human GLUT2 (Homo sapiens, UniProt P11168).
T2 construct: expressed in transfected cells
T2 sequence (P11168 1-524): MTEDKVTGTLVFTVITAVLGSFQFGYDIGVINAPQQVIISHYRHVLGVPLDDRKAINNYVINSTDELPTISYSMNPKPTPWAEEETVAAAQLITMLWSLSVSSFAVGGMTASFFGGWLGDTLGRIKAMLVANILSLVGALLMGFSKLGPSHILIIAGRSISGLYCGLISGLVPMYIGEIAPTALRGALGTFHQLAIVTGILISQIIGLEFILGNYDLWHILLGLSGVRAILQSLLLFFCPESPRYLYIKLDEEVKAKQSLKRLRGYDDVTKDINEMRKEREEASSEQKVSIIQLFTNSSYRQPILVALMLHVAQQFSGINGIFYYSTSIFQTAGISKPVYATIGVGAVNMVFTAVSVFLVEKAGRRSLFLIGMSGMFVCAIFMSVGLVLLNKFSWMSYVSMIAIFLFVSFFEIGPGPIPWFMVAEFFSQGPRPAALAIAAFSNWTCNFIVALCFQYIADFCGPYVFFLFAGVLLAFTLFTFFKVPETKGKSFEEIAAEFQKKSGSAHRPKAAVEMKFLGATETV
The assay can be described thus: [3H]-deoxy-D-glucose uptake assay, GLUT2. Conditions: [3H]-deoxy-D-glucose uptake in HEK293 cells stably expressing human GLUT2. In outline: as §1

In another assay the target is T3, human GLUT3 (Homo sapiens, UniProt P11169).
T3 construct: expressed in transfected cells
T3 sequence (P11169 1-496): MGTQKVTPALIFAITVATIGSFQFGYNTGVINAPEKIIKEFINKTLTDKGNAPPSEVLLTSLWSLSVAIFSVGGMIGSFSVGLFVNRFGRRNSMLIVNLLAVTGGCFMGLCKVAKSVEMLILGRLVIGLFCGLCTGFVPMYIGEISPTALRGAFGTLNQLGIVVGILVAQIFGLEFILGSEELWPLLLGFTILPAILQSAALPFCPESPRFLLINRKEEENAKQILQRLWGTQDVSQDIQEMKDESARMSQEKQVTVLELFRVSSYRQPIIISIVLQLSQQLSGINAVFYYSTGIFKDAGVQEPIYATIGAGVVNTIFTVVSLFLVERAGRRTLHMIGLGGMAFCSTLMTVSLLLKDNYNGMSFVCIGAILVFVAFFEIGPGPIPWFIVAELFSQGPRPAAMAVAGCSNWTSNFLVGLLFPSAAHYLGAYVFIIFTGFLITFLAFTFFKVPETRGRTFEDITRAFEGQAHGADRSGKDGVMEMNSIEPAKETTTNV
The assay can be described thus: [3H]-deoxy-D-glucose uptake assay, GLUT3. As to conditions: [3H]-deoxy-D-glucose uptake in HEK293 cells stably expressing human GLUT3. In outline:
(§4)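 HEK293 cells stably overexpressing human GLUT3 or GLUT4, preincubated with compound 30 min at 37 °C in glucose-free HEPES buffer pH 7.4. [3H]-deoxy-D-glucose (125 μM final) uptake then run 30 min at 37 °C, quantified by scintillation counting; IC50 determined.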

The next assay has as its target T4, human GLUT4 (Homo sapiens, UniProt P14672).
T4 construct: expressed in transfected cells
T4 sequence (P14672 1-509): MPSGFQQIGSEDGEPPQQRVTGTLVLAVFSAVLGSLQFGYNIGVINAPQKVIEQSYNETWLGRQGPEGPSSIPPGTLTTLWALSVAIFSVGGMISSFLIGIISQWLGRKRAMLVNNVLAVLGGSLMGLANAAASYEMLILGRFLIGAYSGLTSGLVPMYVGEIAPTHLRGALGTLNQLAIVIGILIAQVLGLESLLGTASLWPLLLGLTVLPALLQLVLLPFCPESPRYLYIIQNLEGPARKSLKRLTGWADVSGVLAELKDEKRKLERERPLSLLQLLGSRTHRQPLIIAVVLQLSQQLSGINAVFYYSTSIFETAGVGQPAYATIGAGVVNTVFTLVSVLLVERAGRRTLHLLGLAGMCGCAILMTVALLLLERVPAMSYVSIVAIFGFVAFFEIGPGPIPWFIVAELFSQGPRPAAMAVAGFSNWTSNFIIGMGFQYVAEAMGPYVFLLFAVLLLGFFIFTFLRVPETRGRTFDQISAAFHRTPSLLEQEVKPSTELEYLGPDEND
In words: [3H]-deoxy-D-glucose uptake assay, GLUT4. Conditions: [3H]-deoxy-D-glucose uptake in HEK293 cells stably expressing human GLUT4. In outline:
as §4

Regarding `N#Cc1ccccc1-c1ccc2nc(-c3ccc(Cl)cc3)c(CN3CCN(C(=O)c4cccc(F)c4)CC3)n2c1` [Compound 155], at human GLUT1, the “GLUT1 pIC50” value is on record as “+++ (pIC50 ≧ 6.00)”. Also, the IC50 in the assay with A549 cells (5 mM glucose, read-out: Lactate Secretion (5 mM glucose) pIC50 (converted)) is 77.6 nM; in the assay on A549 cells (17 mM glucose, read-out: Lactate Secretion (17 mM glucose) pIC50 (converted)), 398 nM; in assay [1] (5 mM glucose, read-out: Proliferation (5 mM glucose) pIC50 (converted)) it was less than 126 nM; in assay [1] (17 mM glucose, read-out: Proliferation (17 mM glucose) pIC50 (converted)) it was 380 nM; in assay [2] (5 mM glucose, read-out: Apoptosis (5 mM glucose) pIC50 (converted)), 316 nM; in assay [2] (17 mM glucose, read-out: Apoptosis (17 mM glucose) pIC50 (converted)), 813 nM. Besides, the IC50 in assay [3] was 25.7 nM.

With `CN(c1ccc2nc(-c3ccc(Cl)cc3Cl)c(CN3CCN(C(=O)C4CCOCC4)CC3)n2c1)S(C)(=O)=O` [Compound 372], the “GLUT1 pIC50” value at human GLUT1 was “+++ (pIC50 ≧ 6.00)”. At human GLUT2, the “GLUT2 pIC50” value was “+++ (pIC50 ≧ 6.00)”. Besides, the “GLUT3 pIC50” value on human GLUT3 is listed as “+++ (pIC50 ≧ 6.00)”. At human GLUT4, the “GLUT4 pIC50” value is “+++ (pIC50 ≧ 6.00)”.

With `CS(=O)(=O)Nc1ccc2nc(-c3ccc(Cl)cc3Cl)c(CN3CCN4C(=O)CCC4C3)n2c1` (stereo not shown) [Compound 373], the “GLUT1 pIC50” value at human GLUT1 is on record as “+++ (pIC50 ≧ 6.00)”. Moreover, on human GLUT2, the “GLUT2 pIC50” value is listed as “+++ (pIC50 ≧ 6.00)”. Also, the “GLUT3 pIC50” value at human GLUT3 is listed as “+++ (pIC50 ≧ 6.00)”. Moreover, the “GLUT4 pIC50” value on human GLUT4 is reported as “+++ (pIC50 ≧ 6.00)”.

For `CN(c1ccc2nc(-c3ccc(Cl)cc3Cl)c(CN3CCN4C(=O)CCC4C3)n2c1)S(C)(=O)=O` (stereo not shown) [Compound 374], on human GLUT1, the “GLUT1 pIC50” value is recorded as “+++ (pIC50 ≧ 6.00)”. Further, the “GLUT2 pIC50” value at human GLUT2 was “+++ (pIC50 ≧ 6.00)”. Further, the “GLUT3 pIC50” value on human GLUT3 is “+++ (pIC50 ≧ 6.00)”. Moreover, the “GLUT4 pIC50” value on human GLUT4 is “+++ (pIC50 ≧ 6.00)”.

Turning to `CSc1ccc2nc(-c3ccc(Cl)cc3)c(CN3CCN(C(C)=O)CC3)n2c1` [Compound 377], the “GLUT1 pIC50” value on human GLUT1 is “++ (pIC50 5.00-5.99)”. Also, on human GLUT2, the “GLUT2 pIC50” value is “++ (pIC50 5.00-5.99)”. At human GLUT3, the “GLUT3 pIC50” value was “+++ (pIC50 ≧ 6.00)”. Besides, the “GLUT4 pIC50” value on human GLUT4 was “+++ (pIC50 ≧ 6.00)”.

Take `CC(=O)N1CCN(Cc2c(-c3ccc(Cl)cc3)nc3ccc(S(C)(=O)=O)cn23)CC1` [Compound 378]: the “GLUT1 pIC50” value at human GLUT1 was “+++ (pIC50 ≧ 6.00)”. At human GLUT2, the “GLUT2 pIC50” value is “+− (pIC50 < 4.00)”. The “GLUT3 pIC50” value at human GLUT3 was “+++ (pIC50 ≧ 6.00)”. Further, the “GLUT4 pIC50” value at human GLUT4 is on record as “+++ (pIC50 ≧ 6.00)”.

Regarding `CN(c1ccc2nc(-c3ccc(Cl)cc3Cl)c(CN3CCN(C(=O)C(C)(C)O)CC3)n2c1)S(C)(=O)=O` [Compound 381], the “GLUT1 pIC50” value at human GLUT1 was “+++ (pIC50 ≧ 6.00)”. Moreover, the “GLUT2 pIC50” value at human GLUT2 was “++ (pIC50 5.00-5.99)”. For the same compound, the “GLUT3 pIC50” value on human GLUT3 is on record as “+++ (pIC50 ≧ 6.00)”. For the same compound, the “GLUT4 pIC50” value on human GLUT4 is given as “+++ (pIC50 ≧ 6.00)”.

As to `CC(=O)N1CCN(Cc2c(-c3ccc(Cl)cc3)nc3ccc(S(=O)(=O)C(C)C)cn23)CC1` [Compound 382], the “GLUT1 pIC50” value on human GLUT1 is reported as “+++ (pIC50 ≧ 6.00)”. For the same compound, at human GLUT2, the “GLUT2 pIC50” value is “++ (pIC50 5.00-5.99)”. At human GLUT3, the “GLUT3 pIC50” value was “+++ (pIC50 ≧ 6.00)”. The “GLUT4 pIC50” value on human GLUT4 is listed as “+++ (pIC50 ≧ 6.00)”.

As for `CCS(=O)(=O)c1ccc2nc(-c3ccc(Cl)cc3)c(CN3CCN(C(C)=O)CC3)n2c1` [Compound 385], the “GLUT1 pIC50” value at human GLUT1 is “+++ (pIC50 ≧ 6.00)”. In addition, the “GLUT2 pIC50” value at human GLUT2 is listed as “++ (pIC50 5.00-5.99)”. Moreover, the “GLUT3 pIC50” value at human GLUT3 was “+++ (pIC50 ≧ 6.00)”. Besides, the “GLUT4 pIC50” value on human GLUT4 was “+++ (pIC50 ≧ 6.00)”.
